Data taken from patent US20250311722A1, “IMPROVED BIOCIDE” (Purgos ApS, priority 2022, published 2025).
Converted amounts (≈) assume the structure as drawn.

How the values were obtained:
[1] = cited from earlier work
bacteria [2] = assay: 2,2′-(octylimino)bisethanol in contaminated solution of polyisocyanate crosslinker, 32° C., cATP (LuminUltra); type: cell-based; conditions: for bacteria count: 32° C.
Protocol: For further analysing the biocidal effect of 2,2′-(octylimino)bisethanol, a solution of 2,2′-(octylimino)bisethanol was added into a contaminated solution of polyisocyanate crosslinker in two different concentrations of 0.50% and 1.00%, incubated at 32° C. and analysed for microbial activity and microbial contamination using […] Adenosine Triphosphate cATP as a measure of microbial contamination using LuminUltra® microbial monitoring system.

bacteria [3] = assay: 2,2′-(octylimino)bisethanol in common surfactant/soap, at 32° C., cATP (LuminUltra); type: cell-based
Protocol: (§1) A solution of 2,2′-(octylimino)bisethanol was added to two different solutions comprising two different surfactants, in two different concentrations of 0.50% and 1.00%. The four different solutions incubated at 32° C. and analysed for microbial activity and microbial contamination using […] Adenosine Triphosphate cATP as a measure of microbial contamination using LuminUltra® microbial monitoring system (see e.g. Examples 1, 5 and 6). The results are summarized in tables XXV and XXVI, where “additive” refers to 2,2′-(octylimino)bisethanol.

bacteria [4] = assay: 2,2′-(octylimino)bisethanol in K-Oleate, incubated at 32° C., cATP (LuminUltra); type: cell-based
Protocol: as §1

bacteria [5] = assay: APDEA in different PVB dispersions at 32° C., ATP analysis (LuminUltra); type: cell-based; design: bacteria count 6 mo after adding APDEA / bacteria count 1 d after adding APDEA / bacteria count 1 wk after adding APDEA / bacteria count 1 mo after adding APDEA / bacteria count 3 mo after adding APDEA: unit not given here
Protocol: Tertiary amine, water and PVB-dispersion was mechanically stirred in IKA vertical fixed blade stirrer for sampling in 2-5 minutes. Conditions was industrial clean, meaning no special precautions was taken to prevent contamination, except normal cleanliness and between operations dishwashing procedures.
Working temperatures was 20-25 degre Celsius, and all incubations was made in thermostatic 32-degree Celsius incubator ovens for bottled flasks and open petri dishes.
Before measuring total ATP, the samples are shaken for 30 seconds in a mechanical mixer. 1 ml of each sample is used in the process of analysing total ATP. The protocol is provided by LuminUltra Technologies.
The biocidal effectivity of APDEA in different PVB dispersions was measured as explained above in example 46. Incubation was done at 32° C. and sample tested 1 day (abbreviated as 1d in table XX), 1 week (abbreviated as 1 wk in table XX) and 1, 3 and 6 months (abbreviated as mo in tables XXIII and XXIV) after addition of APDEA.

rat = conditions: cited from earlier work
[6] = 0.50% in common surfactant/soap
[7] = 1.00% in common surfactant/soap
[8] = 0.5% APDEA, PVB dispersion FX2, 32° C.
[9] = 0.5% APDEA, PVB dispersion FX6, 32° C.
[10] = 0.5% APDEA, PVB dispersion MW, 32° C.
[11] = 0.5% APDEA, PVB dispersion SX2, 32° C.
[12] = 0.5% APDEA, PVB dispersion WX2, 32° C.
[13] = 0.5% APDEA, PVB dispersion WX25, 32° C.
[14] = 1.0% APDEA, PVB dispersion FX2, 32° C.
[15] = 1.0% APDEA, PVB dispersion FX6, 32° C.
[16] = 1.0% APDEA, PVB dispersion MW, 32° C.
[17] = 1.0% APDEA, PVB dispersion SX2, 32° C.
[18] = 1.0% APDEA, PVB dispersion WX2, 32° C.
[19] = 1.0% APDEA, PVB dispersion WX25, 32° C.

CCCCCCCCN(CCO)CCO [2,2′-(octylimino)bisethanol]
solubility in water [1]: 1400 µg/mL (≈ 6.44 mM)
solubility in water (words) [1]: water dispersible
bacteria count (bacteria [2]; 0.50%, 1 day after adding additive): 226
bacteria count (bacteria [2]; 0.50%, after 1 month): 20
bacteria count (bacteria [2]; 0.50%, after 1 week): 20
bacteria count (bacteria [2]; 0.50%, after 3 months): 282
bacteria count (bacteria [2]; 0.50%, after 6 months): 0
bacteria count (bacteria [2]; 1.00%, 1 day after adding additive): 174
bacteria count (bacteria [2]; 1.00%, after 1 month): 155
bacteria count (bacteria [2]; 1.00%, after 1 week): 180
bacteria count (bacteria [2]; 1.00%, after 3 months): 0
bacteria count (bacteria [2]; 1.00%, after 6 months): 0
effectiveness as a biocide (bacteria [2]; as low concentration as 0.50%, all three test solutions, long term (at least 6 months)): highly effective as a biocide
BSI (1 day after adding additive) (bacteria [3]; [6]): 18
BSI (after 1 month) (bacteria [3]; [6]): 47
BSI (after 1 week) (bacteria [3]; [6]): 14
BSI (after 3 months) (bacteria [3]; [6]): 75
BSI (after 9 months) (bacteria [3]; [6]): 90.8
bacteria count (1 day after adding additive) (bacteria [3]; [6]): 917
bacteria count (after 1 month) (bacteria [3]; [6]): 360
bacteria count (after 1 week) (bacteria [3]; [6]): 5040
bacteria count (after 3 months) (bacteria [3]; [6]): 28.5
bacteria count (after 6 months) (bacteria [3]; [6]): 0
bacteria count (after 9 months) (bacteria [3]; [6]): 7.5
BSI (1 day after adding additive) (bacteria [3]; [7]): 18
BSI (after 1 month) (bacteria [3]; [7]): 80
BSI (after 1 week) (bacteria [3]; [7]): 13
BSI (after 3 months) (bacteria [3]; [7]): 53.1
BSI (after 6 months) (bacteria [3]; [7]): 55.6
BSI (after 9 months) (bacteria [3]; [7]): 39.2
bacteria count (1 day after adding additive) (bacteria [3]; [7]): 369
bacteria count (after 1 month) (bacteria [3]; [7]): 2.6
bacteria count (after 1 week) (bacteria [3]; [7]): 141
bacteria count (after 3 months) (bacteria [3]; [7]): 20.7
bacteria count (after 6 months) (bacteria [3]; [7]): 5.86
bacteria count (after 9 months) (bacteria [3]; [7]): 10.5
BSI (1 day after adding additive) (bacteria [4]; 0.50% in K-Oleate): 29
BSI (after 1 month) (bacteria [4]; 0.50% in K-Oleate): 68
BSI (after 1 week) (bacteria [4]; 0.50% in K-Oleate): 52
BSI (after 3 months) (bacteria [4]; 0.50% in K-Oleate): 80.1
BSI (after 9 months) (bacteria [4]; 0.50% in K-Oleate): 81.3
bacteria count (1 day after adding additive) (bacteria [4]; 0.50% in K-Oleate): 789
bacteria count (after 1 month) (bacteria [4]; 0.50% in K-Oleate): 215
bacteria count (after 1 week) (bacteria [4]; 0.50% in K-Oleate): 758
bacteria count (after 3 months) (bacteria [4]; 0.50% in K-Oleate): 88
bacteria count (after 6 months) (bacteria [4]; 0.50% in K-Oleate): 0
bacteria count (after 9 months) (bacteria [4]; 0.50% in K-Oleate): 30
BSI (1 day after adding additive) (bacteria [4]; 1.00% in K-Oleate): 35
BSI (after 1 month) (bacteria [4]; 1.00% in K-Oleate): 71
BSI (after 1 week) (bacteria [4]; 1.00% in K-Oleate): 43
BSI (after 3 months) (bacteria [4]; 1.00% in K-Oleate): 82.4
BSI (after 6 months) (bacteria [4]; 1.00% in K-Oleate): 30.6
BSI (after 9 months) (bacteria [4]; 1.00% in K-Oleate): 88.8
bacteria count (1 day after adding additive) (bacteria [4]; 1.00% in K-Oleate): 284
bacteria count (after 1 month) (bacteria [4]; 1.00% in K-Oleate): 50
bacteria count (after 1 week) (bacteria [4]; 1.00% in K-Oleate): 176
bacteria count (after 3 months) (bacteria [4]; 1.00% in K-Oleate): 39
bacteria count (after 6 months) (bacteria [4]; 1.00% in K-Oleate): 629
bacteria count (after 9 months) (bacteria [4]; 1.00% in K-Oleate): 13

NCCCN(CCO)CCO [APDEA, N-(3-Aminopropyl) diethanolamine]
bacteria count 1 mo after adding APDEA (bacteria [5]; [8]): 35
bacteria count 1 wk after adding APDEA (bacteria [5]; [8]): 73
bacteria count 3 mo after adding APDEA (bacteria [5]; [8]): 83
bacteria count 6 mo after adding APDEA (bacteria [5]; [8]): 195
bacteria count 1 d after adding APDEA (bacteria [5]; [8]): 25
bacteria count 1 mo after adding APDEA (bacteria [5]; [9]): 40
bacteria count 1 wk after adding APDEA (bacteria [5]; [9]): 33
bacteria count 3 mo after adding APDEA (bacteria [5]; [9]): 65
bacteria count 6 mo after adding APDEA (bacteria [5]; [9]): 96.6
bacteria count 1 d after adding APDEA (bacteria [5]; [9]): 71
bacteria count 1 mo after adding APDEA (bacteria [5]; [10]): 60
bacteria count 1 wk after adding APDEA (bacteria [5]; [10]): 33
bacteria count 3 mo after adding APDEA (bacteria [5]; [10]): 84
bacteria count 6 mo after adding APDEA (bacteria [5]; [10]): 45
bacteria count 1 d after adding APDEA (bacteria [5]; [10]): 82
bacteria count 1 mo after adding APDEA (bacteria [5]; [11]): 85
bacteria count 1 wk after adding APDEA (bacteria [5]; [11]): 66
bacteria count 3 mo after adding APDEA (bacteria [5]; [11]): 48
bacteria count 6 mo after adding APDEA (bacteria [5]; [11]): 79
bacteria count 1 d after adding APDEA (bacteria [5]; [11]): 29
bacteria count 1 mo after adding APDEA (bacteria [5]; [12]): 50
bacteria count 1 wk after adding APDEA (bacteria [5]; [12]): 116
bacteria count 3 mo after adding APDEA (bacteria [5]; [12]): 38.8
bacteria count 6 mo after adding APDEA (bacteria [5]; [12]): 22
bacteria count 1 d after adding APDEA (bacteria [5]; [12]): 59
bacteria count 1 mo after adding APDEA (bacteria [5]; [13]): 98
bacteria count 1 wk after adding APDEA (bacteria [5]; [13]): 95
bacteria count 3 mo after adding APDEA (bacteria [5]; [13]): 177
bacteria count 6 mo after adding APDEA (bacteria [5]; [13]): 93
bacteria count 1 d after adding APDEA (bacteria [5]; [13]): 71
biocidal effect as sole biocide (bacteria [5]; 0.5 and 1 wt % to water phase): effects similar to NBDA
bacteria count 1 mo after adding APDEA (bacteria [5]; [14]): 78
bacteria count 1 wk after adding APDEA (bacteria [5]; [14]): 80
bacteria count 3 mo after adding APDEA (bacteria [5]; [14]): 134
bacteria count 6 mo after adding APDEA (bacteria [5]; [14]): 167
bacteria count 1 d after adding APDEA (bacteria [5]; [14]): 66
bacteria count 1 mo after adding APDEA (bacteria [5]; [15]): 100
bacteria count 1 wk after adding APDEA (bacteria [5]; [15]): 22.4
bacteria count 3 mo after adding APDEA (bacteria [5]; [15]): 99
bacteria count 6 mo after adding APDEA (bacteria [5]; [15]): 132
bacteria count 1 d after adding APDEA (bacteria [5]; [15]): 12
bacteria count 1 mo after adding APDEA (bacteria [5]; [16]): 110
bacteria count 1 wk after adding APDEA (bacteria [5]; [16]): 115
bacteria count 3 mo after adding APDEA (bacteria [5]; [16]): 98
bacteria count 6 mo after adding APDEA (bacteria [5]; [16]): 38
bacteria count 1 d after adding APDEA (bacteria [5]; [16]): 75
bacteria count 1 mo after adding APDEA (bacteria [5]; [17]): 98
bacteria count 1 wk after adding APDEA (bacteria [5]; [17]): 81
bacteria count 3 mo after adding APDEA (bacteria [5]; [17]): 92
bacteria count 6 mo after adding APDEA (bacteria [5]; [17]): 98
bacteria count 1 d after adding APDEA (bacteria [5]; [17]): 69
bacteria count 1 mo after adding APDEA (bacteria [5]; [18]): 33
bacteria count 1 wk after adding APDEA (bacteria [5]; [18]): 18
bacteria count 3 mo after adding APDEA (bacteria [5]; [18]): 78
bacteria count 6 mo after adding APDEA (bacteria [5]; [18]): 20
bacteria count 1 d after adding APDEA (bacteria [5]; [18]): 45
bacteria count 1 mo after adding APDEA (bacteria [5]; [19]): 75
bacteria count 1 wk after adding APDEA (bacteria [5]; [19]): 136
bacteria count 3 mo after adding APDEA (bacteria [5]; [19]): 151
bacteria count 6 mo after adding APDEA (bacteria [5]; [19]): 35
bacteria count 1 d after adding APDEA (bacteria [5]; [19]): 72
solubility in water (words) [1]: water soluble

[Cl-].[Na+] [NaCl, reference compound]
LD50 (rat, oral) (rat): 3000 mg
